This is an account of results in publication PMC11945486, “TAS1R2/TAS1R3 Single-Nucleotide Polymorphisms Affect Sweet Taste Receptor Activation by Sweeteners: The SWEET Project” (Nutrients, 2025).

No end group written: not given here.

In this test the target is T1, mTAS1R2-WT/mTAS1R3-WT (Mus musculus, UniProt Q925D8+Q925I4).
T1 construct: expressed in transfected cells; host or cells: HEK293T-Gα16gust44
T1 sequence (Q925I4 20-843): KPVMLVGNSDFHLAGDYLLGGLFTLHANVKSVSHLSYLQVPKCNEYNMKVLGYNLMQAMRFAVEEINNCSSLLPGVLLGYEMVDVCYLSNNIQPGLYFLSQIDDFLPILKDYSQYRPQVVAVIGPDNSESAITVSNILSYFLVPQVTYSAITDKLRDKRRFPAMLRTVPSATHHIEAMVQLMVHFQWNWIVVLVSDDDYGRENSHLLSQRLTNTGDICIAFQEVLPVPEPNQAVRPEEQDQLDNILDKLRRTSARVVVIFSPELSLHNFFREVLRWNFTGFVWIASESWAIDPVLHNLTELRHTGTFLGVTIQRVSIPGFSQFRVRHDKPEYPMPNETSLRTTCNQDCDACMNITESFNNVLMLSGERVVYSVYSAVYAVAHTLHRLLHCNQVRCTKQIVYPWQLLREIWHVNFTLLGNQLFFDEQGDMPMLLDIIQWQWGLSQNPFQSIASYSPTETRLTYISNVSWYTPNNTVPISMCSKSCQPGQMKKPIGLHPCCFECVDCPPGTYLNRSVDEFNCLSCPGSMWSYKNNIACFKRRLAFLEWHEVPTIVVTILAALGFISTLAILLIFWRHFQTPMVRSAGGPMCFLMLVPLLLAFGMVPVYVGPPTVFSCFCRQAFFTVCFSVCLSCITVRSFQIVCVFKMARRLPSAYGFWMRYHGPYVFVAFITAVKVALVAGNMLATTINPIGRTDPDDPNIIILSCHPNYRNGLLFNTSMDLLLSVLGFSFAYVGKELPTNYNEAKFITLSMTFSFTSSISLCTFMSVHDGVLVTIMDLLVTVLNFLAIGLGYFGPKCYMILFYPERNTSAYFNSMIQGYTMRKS
T1 sequence (Q925D8 21-858): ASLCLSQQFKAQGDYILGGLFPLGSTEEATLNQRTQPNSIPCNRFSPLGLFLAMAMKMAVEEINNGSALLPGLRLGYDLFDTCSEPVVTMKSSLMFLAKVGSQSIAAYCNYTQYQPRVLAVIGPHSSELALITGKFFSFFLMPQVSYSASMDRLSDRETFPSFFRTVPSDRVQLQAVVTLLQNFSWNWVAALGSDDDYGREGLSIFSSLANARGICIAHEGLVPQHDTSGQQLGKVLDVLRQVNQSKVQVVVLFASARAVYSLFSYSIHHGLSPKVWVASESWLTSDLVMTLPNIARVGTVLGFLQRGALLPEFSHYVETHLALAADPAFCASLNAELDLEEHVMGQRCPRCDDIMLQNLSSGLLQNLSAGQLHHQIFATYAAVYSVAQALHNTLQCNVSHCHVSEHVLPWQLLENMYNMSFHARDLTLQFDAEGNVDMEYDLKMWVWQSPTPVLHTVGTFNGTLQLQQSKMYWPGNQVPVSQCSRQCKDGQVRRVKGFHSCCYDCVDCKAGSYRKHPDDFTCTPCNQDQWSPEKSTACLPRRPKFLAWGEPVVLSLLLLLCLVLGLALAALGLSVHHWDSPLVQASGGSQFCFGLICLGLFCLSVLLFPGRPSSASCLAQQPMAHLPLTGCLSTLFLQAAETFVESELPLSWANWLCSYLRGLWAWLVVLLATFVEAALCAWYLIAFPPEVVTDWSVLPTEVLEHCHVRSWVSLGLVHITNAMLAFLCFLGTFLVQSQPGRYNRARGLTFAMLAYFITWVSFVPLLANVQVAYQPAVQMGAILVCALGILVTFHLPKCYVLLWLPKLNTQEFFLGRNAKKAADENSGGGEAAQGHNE
The experiment in a line: Calcium mobilisation assay, HEK293T-Gα16gust44 cells, mouse sweet taste receptor WT. The format is cell-based. The settings on record: for EC50 / Max ΔF/F0: mTAS1R2-WT + mTAS1R3-WT, "-": no activation; for Max ΔF/F0: maximal signal amplitude; for activation of the mouse sweet taste receptor: result in words. Here is the method: The HEK293T cells were kindly provided by Jay P. Slack (Givaudan Flavors Corporation; Cincinnati, OH, USA). HEK293T cells stably transfected with Gα16gust44 [43, 67] were seeded in poly-D-lysine-coated clear-bottom black 96-well plates (0.35 × 10^5 cells/well) in high-glucose DMEM supplemented with 2 mM GlutaMAX, 10% dialysed foetal bovine serum with penicillin/streptomycin and G418 (400 μg/mL) at 37 °C and 6.3% CO2 in a humidified atmosphere as previously reported. […] As a negative control, HEK293T cells were mock-transfected with the empty expression vector. After a further 24 h of incubation, the HEK293T cells were washed with C1 buffer (130 mM NaCl, 5 mM KCl, 10 mM HEPES pH 7.4 and 2 mM CaCl2). The 96-well plates containing the cells were then stimulated with sweet-tasting compounds. […] Different concentration ranges were tested depending on the sweet compound injected. The Ca^2+ changes were expressed as fractional changes in fluorescent light intensity: ΔF/F = (F − F0)/F0, where F was the fluorescent light intensity at each point, and F0 was the value of emitted fluorescent light prior to stimulus application. To calculate dose–response relationships, the changes in fluorescence upon stimulus application were averaged, mock-subtracted and baseline-corrected. The dose–response data obtained were adjusted using a 4-parameter logistic equation. The half-maximal effective concentrations (EC50 values) and maximal signal amplitudes were calculated using SigmaPlot software (version 15.0) (Systat Software; San Jose, CA, USA).
HEK293T-Gα16gust44 cells were transiently cotransfected with pcDNA6-MAX-mTAS1R2-FLAG, pcDNA4-MAX-mTAS1R3-WT-FLAG or pcDNA4-MAX-mTAS1R3-I60T-FLAG, and pCMV-GCaMP5G as previously described in detail. After 24 h, the cells were washed with C1 buffer and stimulated with a logarithmically increasing range of sweetener concentrations. Calcium responses during automated application were monitored using a FlexStation®3 Multi-Mode microplate reader. The dose–response curves, EC50 values and maximal signal amplitudes were calculated as previously described.
For in vitro calcium mobilisation assay performed on hTAS1R2-SNPs, hTAS1R3-SNPs and mTAS1R3-I60T, 6 to 7 concentrations were tested for each sweet compound, plus buffer alone. All concentration–receptor combinations were measured in duplicate, and each experiment was repeated at least 4 times (8 wells/concentration). Results were expressed for each concentration as ΔF/F mean ± SEM and represented as dose–response curves.

For `OC[C@H]1O[C@H](O[C@]2(CCl)O[C@H](CCl)[C@@H](O)[C@@H]2O)[C@H](O)[C@@H](O)[C@H]1Cl` [Sucralose], the EC50 stood at 778 ± 22 µM and the “Max ΔF/F0” value came to 2.03 ± 0.02.
Consider `C[C@H](CC[C@@H](O[C@@H]1O[C@H](CO[C@@H]2O[C@H](CO)[C@@H](O)[C@H](O)[C@H]2O)[C@@H](O)[C@H](O)[C@H]1O[C@@H]1O[C@H](CO)[C@@H](O)[C@H](O)[C@H]1O)C(C)(C)O)[C@H]1CC[C@@]2(C)[C@@H]3CC=C4[C@@H](CC[C@H](O[C@@H]5O[C@H](CO[C@@H]6O[C@H](CO)[C@@H](O)[C@H](O)[C@H]6O)[C@@H](O)[C@H](O)[C@H]5O)C4(C)C)[C@]3(C)[C@H](O)C[C@]12C` [Mogroside V, mogroside V], for which the EC50 was determined as 133 ± 6 µM and the “Max ΔF/F0” value turned out to be 0.84 ± 0.02.
Consider `COC(=O)[C@H](Cc1ccccc1)NC(=O)[C@H](CC(=O)O)NCCC(C)(C)C` [Neotame], for which the “activation of the mouse sweet taste receptor” value (“activation” below) is “not activated”.
For the molecule “brazzein (QDKCKKVYENYPVSKCQLANQCNYDCKLDKHARSGECFYDEKRNLQCICDYCEY; ends and bridges not checked; cysteine pairing not given here; UniProt P56552 1-54, looked up) [sweet-tasting protein obtained by recombinant production using the yeast Pichia pastoris]”, the “activation” value is recorded as “not activated”.
Still for that read-out and setting: with `C=C(C)[C@@H]1CC=C(/C=N/O)CC1` [Perillartine, perillartine] the entry was “not activated”.
Take `CC1=CC(=O)NS(=O)(=O)O1` [Acesulfame K, acesulfame K]: the EC50 came out at 439 ± 10 µM and the “Max ΔF/F0” value was 1.63 ± 0.02.
With `C=C1C[C@@]23CC[C@H]4[C@@](C)(CCC[C@@]4(C)C(=O)O[C@@H]4O[C@H](CO)[C@@H](O)[C@H](O[C@@H]5O[C@H](CO)[C@@H](O)[C@H](O)[C@H]5O)[C@H]4O[C@@H]4O[C@H](CO)[C@@H](O)[C@H](O)[C@H]4O)[C@@H]2CC[C@]1(O[C@@H]1O[C@H](CO)[C@@H](O)[C@H](O[C@@H]2O[C@H](CO)[C@@H](O)[C@H](O)[C@H]2O)[C@H]1O[C@@H]1O[C@H](CO)[C@@H](O)[C@H](O)[C@H]1O)C3` [Rebaudioside M, rebaudioside M], the EC50 worked out at 44 ± 4 µM and the “Max ΔF/F0” value worked out at 1.41 ± 0.05.
Consider `O=S(=O)(O)NC1CCCCC1` [Cyclamate, cyclamate], for which the “activation” value was “not activated”.
In the case of `COc1ccc(CCC(=O)c2c(O)cc(O[C@@H]3O[C@H](CO)[C@@H](O)[C@H](O)[C@H]3O[C@@H]3O[C@@H](C)[C@H](O)[C@@H](O)[C@H]3O)cc2O)cc1O` [NHDC, neohesperidin dihydrochalcone], the “activation” value is on record as “not activated”.
On to thaumatin, for which the “activation” value was “not activated”.
